This experiment deals with hATX/ENPP2 (Homo sapiens, UniProt Q13822). The experiment is described as follows: hATX/ENPP2 biochemical assay using 16:0-LPC as substrate (Amplex Red/choline oxidase/HRP fluorescence). The settings on record: hENPP2 2.5 nM, LPC (16:0) substrate. The procedure, abridged:
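Enzyme preincubated with compounds 15 min at room temperature in 50 mM Tris-HCl pH 8.0, 140 mM NaCl, 5 mM CaCl2, 0.01% Triton X-100. Reaction started with 80 μM LPC (16:0) stock plus Amplex Red/choline oxidase/HRP mix; fluorescence (ex 530/em 590 nm) read kinetically. IC50 from slope between 60 and 70 min.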

Experimental findings from patent US11970493B2, “Autotaxin inhibitor compounds” (ILDONG PHARMACEUTICAL CO., LTD., priority 2020, dated 2024) are described below.

Where a name gives a salt, the structure may show the parent alone.

A word on the IC50: it is the midpoint of a concentration-inhibition curve. Higher therefore signals weaker potency in that assay.

In the case of `CCc1nc2ccc(-c3cnc(N4CCC(NC(=O)[C@@H]5C[C@H](O)CN5)CC4)nc3)cn2c1N(C)c1nc(-c2ccc(F)cc2)c(C#N)s1` [Compound 75, (2S,4S)—N-(1-(5-(3-((5-cyano-4-(4-fluorophenyl)thiazol-2-yl)(methyl)amino)-2-ethylimidazo[1,2-a]pyridin-6-yl)pyrimidin-2-yl)piperidin-4-yl)-4-hydroxypyrrolidine-2-carboxamide], the half-inhibitory concentration (IC50) was no more than 20 nM.
`CCc1nc2ccc(-c3cnc(N4CCC(NC(=O)[C@H]5C[C@@H](O)CN5)CC4)nc3)cn2c1N(C)c1nc(-c2ccc(F)cc2)c(C#N)s1` [Compound 76, (2R,4R)—N-(1-(5-(3-((5-cyano-4-(4-fluorophenyl)thiazol-2-yl)(methyl)amino)-2-ethylimidazo[1,2-a]pyridin-6-yl)pyrimidin-2-vl)piperidin-4-yl)-4-hydroxypyrrolidine-2-carboxamide] returned an IC50 of no more than 20 nM.
`CCc1nc2ccc(-c3cnc(N4CCC(NC(=O)[C@@H]5C[C@@H](O)CN5)CC4)nc3)cn2c1N(C)c1nc(-c2ccc(F)cc2)c(C#N)s1` [Compound 77, (2S,4R)—N-(1-(5-(3-((5-cyano-4-(4-fluorophenyl)thiazol-2-yl)(methyl)amino)-2-ethylimidazo[1,2-a]pyridin-6-yl)pyrimidin-2-yl)piperidin-4-yl)-4-hydroxypyrrolidine-2-carboxamide] yielded a half-maximal inhibitory concentration (IC50) of no more than 20 nM.
Consider `CCc1nc2ccc(-c3cnc(N4CCN(C(=O)[C@@H]5C[C@@H](O)CN5C)CC4)nc3)cn2c1N(C)c1nc(-c2ccc(F)cc2)c(C#N)s1` [Compound 78, 2-((2-ethyl-6-(2-(4-((2S,4R)-4-hydroxy-1-methylpyrrolidine-2-carbonyl)piperazin-1-yl)pyrimidin-5-yl)imidazo [1,2-a]pyridin-3-yl)(methyl)amino)-4-(4-fluorophenyl)thiazole-5-carbonitrile], for which the 50% inhibitory concentration (IC50) was no more than 20 nM.
In turn, `CCc1nc2ccc(-c3cnc(N4CCN(C(=O)NC5CN(C)C5)CC4)nc3)cn2c1N(C)c1nc(-c2ccc(F)cc2)c(C#N)s1` [Compound 82 hydrochloride, 4-(5-(3-((5-cyano-4-(4-fluorophenyl)thiazol-2-yl)(methyl)amino)-2-ethylimidazo[1,2-a]pyridin-6-yl)pyrimidin-2-yl)-N-(1-methylazetidin-3-yl)piperazine-1-carboxamide hydrochloride] displayed a half-maximal inhibitory concentration (IC50) of no more than 20 nM.
Regarding `CCc1nc2ccc(-c3cnc(N4CCC(NC(=O)C5CNC5)CC4)nc3)cn2c1N(C)c1nc(-c2ccc(F)cc2)c(C#N)s1` [Compound 83 hydrochloride, N-(1-(5-(3-((5-cyano-4-(4-fluorophenyl)thiazol-2-yl)(methyl)amino)-2-ethylimidazo[1,2-a]pyridin-6-yl)pyrimidin-2-yl)piperidin-4-yl)azetidine-3-carboxamide hydrochloride], the IC50 was no more than 20 nM.
`CCc1nc2ccc(-c3cnc(N4CCC(NC(=O)C5CCNCC5)CC4)nc3)cn2c1N(C)c1nc(-c2ccc(F)cc2)c(C#N)s1` [Compound 84, N-(1-(5-(3-((5-cyano-4-(4-fluorophenyl)thiazol-2-yl)(methyl)amino)-2-ethylimidazo[1,2-a]pyridin-6-yl)pyrimidin-2-yl)piperidin-4-yl)piperidine-4-carboxamide] registered a half-inhibitory concentration (IC50) of no more than 20 nM.
As to `CCc1nc2ccc(-c3ccc(N4CCN(C(=O)C5CN(C)C5)CC4)nc3)cn2c1N(C)c1nc(-c2ccc(F)cc2)c(C#N)s1` [Compound 86, 2-((2-ethyl-6-(6-(4-(1-methylazetidine-3-carbonyl)piperazin-1-yl)pyridin-3-yl)imidazo[1,2-a]pyridin-3-yl)(methyl)amino)-4-(4-fluorophenyl)thiazole-5-carbonitrile], the concentration for half-maximal inhibition (IC50) was 20 to 200 nM.
Molecule `CCc1nc2ccc(-c3ccc(N4CCC(NC5(CO)CC5)CC4)nc3)cn2c1N(C)c1nc(-c2ccc(F)cc2)c(C#N)s1` [Compound 88, 2-((2-ethyl-6-(6-(4-((1-(hydroxymethyl)cyclopropyl)amino)piperidin-1-yl)pyridin-3-yl)imidazo[1,2-a]pyridin-3-yl)(methyl)amino)-4-(4-fluorophenyl)thiazole-5-carbonitrile] came in with an IC50 of no more than 20 nM.
